Results as given in ChEMBL document CHEMBL1158871, “Minor Bioactive Dihydrophenanthrenes from Juncus effusus” (1997).

How the values were obtained:
Format in all cases: functional
Settings in all cases: UTEX 1648, light or radiation study, read-out: GI
[1] = tested on: Selenastrum capricornutum; assay: Antialgal activity against Selenastrum capricornutum UTEX 1648 assessed as growth inhibition at 10 uM exposed to 150 uEs'-1m'-2 irradiation under 16 hrs light/8 hrs dark photoperiod conditions relative to control
[2] = tested on: Selenastrum capricornutum; assay: Antialgal activity against Selenastrum capricornutum UTEX 1648 assessed as growth inhibition at 50 uM exposed to 150 uEs'-1m'-2 irradiation under 16 hrs light/8 hrs dark photoperiod conditions relative to control
[3] = tested on: Selenastrum capricornutum; assay: Antialgal activity against Selenastrum capricornutum UTEX 1648 assessed as growth inhibition at 0.1 mM exposed to 150 uEs'-1m'-2 irradiation under 16 hrs light/8 hrs dark photoperiod conditions relative to control
[4] = tested on: Selenastrum capricornutum; assay: Antialgal activity against Selenastrum capricornutum UTEX 1648 assessed as growth inhibition at 5 uM exposed to 150 uEs'-1m'-2 irradiation under 16 hrs light/8 hrs dark photoperiod conditions relative to control

Work on `C=Cc1c(CO)ccc2c1-c1ccc(O)c(C)c1CC2` yielded an inhibition of growth at 10 µM [1] of 5%, an inhibition of growth at 50 µM [2] of 40% and an inhibition of growth at 100 µM [3] of 64%. For the same molecule, the inhibition of growth at 5 µM [4] was 0%.

Work on `Cc1cc(CO)c2c(c1)CCc1c-2ccc(O)c1C` yielded an inhibition of growth at 10 µM [1] of 20%, an inhibition of growth at 50 µM [2] of 50% and an inhibition of growth at 100 µM [3] of 80%. It also gave an inhibition of growth at 5 µM [4] of 7%.

`C=Cc1cc(CO)cc2c1-c1ccc(O)c(C)c1CC2` showed an inhibition of growth at 10 µM [1] of 0%, an inhibition of growth at 50 µM [2] of 38% and an inhibition of growth at 100 µM [3] of 57%. The inhibition of growth at 5 µM [4] was 0%.

`Cc1c(O)ccc2c1CCc1c(C)c(O)cc(C(C)O)c1-2` (stereo not drawn) showed an inhibition of growth at 10 µM [1] of 20%, an inhibition of growth at 50 µM [2] of 52% and an inhibition of growth at 100 µM [3] of 75%. The inhibition of growth at 5 µM [4] was 5%.

For `Cc1c(O)ccc2c1CCc1c(C)c(O)cc(CO)c1-2`, the inhibition of growth at 10 µM [1] was 10%, the inhibition of growth at 50 µM [2] was 40% and the inhibition of growth at 100 µM [3] was 70%. It also gave an inhibition of growth at 5 µM [4] of 4%.

`Cc1cc2c(c3c1OC(O)C3O)-c1ccc(O)c(C)c1CC2` (stereo not drawn) showed an inhibition of growth at 10 µM [1] of 0%, an inhibition of growth at 50 µM [2] of 10% and an inhibition of growth at 100 µM [3] of 20%. For the same molecule, the inhibition of growth at 5 µM [4] was 0%.

Work on `COc1cc(CO)c2c(c1C)CCc1c-2ccc(O)c1C` yielded an inhibition of growth at 10 µM [1] of 18%, an inhibition of growth at 50 µM [2] of 55% and an inhibition of growth at 100 µM [3] of 80%. The inhibition of growth at 5 µM [4] was 0%.
